Experimental data as given in PubChem BioAssay AID1918944 (Molecular Pharmacology Branch, DTP, NCI, 2023).
pIC50: −log10 of the molar value. Values joined by “and” are separate entries in the source; they are usually repeats but may differ in a detail not shown here. Identical values can stand only once.

Tested on: 786-0 complex spheroid viability
Assay: Anticancer human tumor 786-0 cell line growth inhibition;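 further: spheroids exposed to agents for seven days before readout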
Conditions: for viability, T/C: stronger effect = lower value
How it was run: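 Complex spheroids of tumor cells with HUVEC and human MSCs, exposed to iadademstat combined with other agents. Each agent tested in half-log steps from near clinical Cmax (else 10 microM top), DMSO ≤0.25%.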

[1] = curve of first compound, second compound 0.1 µM
[2] = curve of first compound, second compound 0.316 µM
[3] = curve of first compound, second compound 1 µM
[4] = curve of first compound, second compound 3.16 µM
[5] = curve of first compound, second compound 10 µM
[6] = second compound 0.1 µM, first compound 0.0316 µM
[7] = second compound 0.1 µM, first compound 0.1 µM
[8] = second compound 0.1 µM, first compound 0.316 µM
[9] = second compound 0.1 µM, first compound 1 µM
[10] = second compound 0.316 µM, first compound 0.0316 µM
[11] = second compound 0.316 µM, first compound 0.1 µM
[12] = second compound 0.316 µM, first compound 0.316 µM
[13] = second compound 0.316 µM, first compound 1 µM
[14] = second compound 1 µM, first compound 0.0316 µM
[15] = second compound 1 µM, first compound 0.1 µM
[16] = second compound 1 µM, first compound 0.316 µM
[17] = second compound 1 µM, first compound 1 µM
[18] = second compound 3.16 µM, first compound 0.0316 µM
[19] = second compound 3.16 µM, first compound 0.1 µM
[20] = second compound 3.16 µM, first compound 0.316 µM
[21] = second compound 3.16 µM, first compound 1 µM
[22] = second compound 10 µM, first compound 0.0316 µM
[23] = second compound 10 µM, first compound 0.1 µM
[24] = second compound 10 µM, first compound 0.316 µM
[25] = second compound 10 µM, first compound 1 µM

COc1cc(C2c3cc4c(cc3C(OC3OC5COC(C)OC5C(O)C3O)C3COC(=O)C23)OCO4)cc(OC)c1O (configuration not stated) + NC1CC1c1ccc(-c2cccc(O)c2)cc1
pIC50 [1]: 6.67 | pIC50 [2]: 6.61 | pIC50 [3]: 6.76 | pIC50 [4]: 6.74 | pIC50 [5]: 6.79 | viability, T/C (second compound 0.1 µM, first compound 0.00949 µM): 96.6% | viability, T/C (second compound 0.1 µM, first compound 0.03 µM): 88.2% | viability, T/C (second compound 0.1 µM, first compound 0.0949 µM): 63.9% | viability, T/C (second compound 0.1 µM, first compound 0.3 µM): 42.5% | viability, T/C (second compound 0.1 µM, first compound 0.949 µM): 26.9% | viability, T/C (second compound 0.1 µM, first compound 3 µM): 12.1% | viability, T/C (second compound 0.316 µM, first compound 0.00949 µM): 105% | viability, T/C (second compound 0.316 µM, first compound 0.03 µM): 95.8% | viability, T/C (second compound 0.316 µM, first compound 0.0949 µM): 66.2% | viability, T/C (second compound 0.316 µM, first compound 0.3 µM): 47.1% | viability, T/C (second compound 0.316 µM, first compound 0.949 µM): 25.8% | viability, T/C (second compound 0.316 µM, first compound 3 µM): 9.93% | viability, T/C (second compound 1 µM, first compound 0.00949 µM): 93.1% | viability, T/C (second compound 1 µM, first compound 0.03 µM): 89.4% | viability, T/C (second compound 1 µM, first compound 0.0949 µM): 57.9% | viability, T/C (second compound 1 µM, first compound 0.3 µM): 40.2% | viability, T/C (second compound 1 µM, first compound 0.949 µM): 22% | viability, T/C (second compound 1 µM, first compound 3 µM): 10.9% | viability, T/C (second compound 3.16 µM, first compound 0.00949 µM): 90.7% | viability, T/C (second compound 3.16 µM, first compound 0.03 µM): 82.9% | viability, T/C (second compound 3.16 µM, first compound 0.0949 µM): 59.2% | viability, T/C (second compound 3.16 µM, first compound 0.3 µM): 43.3% | viability, T/C (second compound 3.16 µM, first compound 0.949 µM): 20.8% | viability, T/C (second compound 3.16 µM, first compound 3 µM): 10.3% | viability, T/C (second compound 10 µM, first compound 0.00949 µM): 80.6% | viability, T/C (second compound 10 µM, first compound 0.03 µM): 76.6% | viability, T/C (second compound 10 µM, first compound 0.0949 µM): 54.3% | viability, T/C (second compound 10 µM, first compound 0.3 µM): 42.5% | viability, T/C (second compound 10 µM, first compound 0.949 µM): 22.6% | viability, T/C (second compound 10 µM, first compound 3 µM): 8.94%

CC1(C)CCC(CN2CCN(c3ccc(C(=O)NS(=O)(=O)c4ccc(NCC5CCOCC5)c([N+](=O)[O-])c4)c(Oc4cnc5[nH]ccc5c4)c3)CC2)=C(c2ccc(Cl)cc2)C1 + NC1CCC(NC2CC2c2ccccc2)CC1
pIC50 [1]: < 5.00 | pIC50 [2]: < 5.00 | pIC50 [3]: < 5.00 | pIC50 [4]: 5.03 | pIC50 [5]: 5.20 | viability, T/C [6]: 113% | viability, T/C [7]: 117% | viability, T/C [8]: 110% | viability, T/C [9]: 116% | viability, T/C (second compound 0.1 µM, first compound 3.16 µM): 103% | viability, T/C (second compound 0.1 µM, first compound 10 µM): 68.1% | viability, T/C [10]: 117% | viability, T/C [11]: 121% | viability, T/C [12]: 120% | viability, T/C [13]: 120% | viability, T/C (second compound 0.316 µM, first compound 3.16 µM): 106% | viability, T/C (second compound 0.316 µM, first compound 10 µM): 67.1% | viability, T/C [14]: 116% | viability, T/C [15]: 116% | viability, T/C [16]: 118% | viability, T/C [17]: 108% | viability, T/C (second compound 1 µM, first compound 3.16 µM): 104% | viability, T/C (second compound 1 µM, first compound 10 µM): 58.3% | viability, T/C [18]: 110% | viability, T/C [19]: 109% | viability, T/C [20]: 107% | viability, T/C [21]: 96% | viability, T/C (second compound 3.16 µM, first compound 3.16 µM): 85.3% | viability, T/C (second compound 3.16 µM, first compound 10 µM): 47.4% | viability, T/C [22]: 90.2% | viability, T/C [23]: 94.6% | viability, T/C [24]: 89.3% | viability, T/C [25]: 74.1% | viability, T/C (second compound 10 µM, first compound 3.16 µM): 63.2% | viability, T/C (second compound 10 µM, first compound 10 µM): 41.8%

CCc1c2c(nc3ccc(O)cc13)-c1cc3c(c(=O)n1C2)COC(=O)[C@]3(O)CC
viability, T/C (compound 0.000949 µM): 6% and 6.39% | viability, T/C (compound 0.003 µM): 4.1% and 4.99% | viability, T/C (compound 0.00949 µM): 3.66% and 5.52% | viability, T/C (compound 0.03 µM): 3.36% and 6.78% | viability, T/C (compound 0.0949 µM): 4.94% and 9.67% | viability, T/C (compound 0.3 µM): 3.44% and 9.65% | pIC50 (curve of compound): > 9.02

CC1COCCN1c1cc(-c2ccnn2C)c2ccnc(-c3ccn[nH]3)c2n1 (configuration not stated) + NC1CCC(NC2CC2c2ccccc2)CC1
pIC50 [1]: 7.43 | pIC50 [2]: 7.43 | pIC50 [3]: 7.51 | pIC50 [4]: 7.65 | pIC50 [5]: 7.91 | viability, T/C (second compound 0.1 µM, first compound 0.00316 µM): 112% | viability, T/C (second compound 0.1 µM, first compound 0.01 µM): 110% | viability, T/C [6]: 55.5% | viability, T/C [7]: 16.3% | viability, T/C [8]: 8.21% | viability, T/C [9]: 10.2% | viability, T/C (second compound 0.316 µM, first compound 0.00316 µM): 123% | viability, T/C (second compound 0.316 µM, first compound 0.01 µM): 114% | viability, T/C [10]: 55.1% | viability, T/C [11]: 16.2% | viability, T/C [12]: 7.09% | viability, T/C [13]: 12.1% | viability, T/C (second compound 1 µM, first compound 0.00316 µM): 116% | viability, T/C (second compound 1 µM, first compound 0.01 µM): 104% | viability, T/C [14]: 48.3% | viability, T/C [15]: 15.1% | viability, T/C [16]: 5.97% | viability, T/C [17]: 11.4% | viability, T/C (second compound 3.16 µM, first compound 0.00316 µM): 107% | viability, T/C (second compound 3.16 µM, first compound 0.01 µM): 83.1% | viability, T/C [18]: 35.9% | viability, T/C [19]: 12.4% | viability, T/C [20]: 5.34% | viability, T/C [21]: 9.25% | viability, T/C (second compound 10 µM, first compound 0.00316 µM): 77.4% | viability, T/C (second compound 10 µM, first compound 0.01 µM): 57% | viability, T/C [22]: 19.2% | viability, T/C [23]: 5.5% | viability, T/C [24]: 3.62% | viability, T/C [25]: 12%
